In ChEMBL document CHEMBL4396896, “N-Aminoacyl and N-hydroxyacyl derivatives of diosgenyl 2-amino-2-deoxy-β-d-glucopyranoside: Synthesis, antimicrobial and hemolytic activities” (Bioorg Med Chem, 2019):
In brackets after ≈: the same amount, converted by molar mass.

How the values were obtained:
Pseudomonas aeruginosa = assay: Antibacterial activity against Pseudomonas aeruginosa ATCC 9027 incubated in MHB II under aerobic condition for 18 hrs using initial inoculum of 5 x 10^5 CFU/ml by serial dilution method; assay type: functional; conditions: ATCC 9027, 18 h
Proteus mirabilis = assay: Antibacterial activity against Proteus mirabilis PCM 543 incubated in MHB II under aerobic condition for 18 hrs using initial inoculum of 5 x 10^5 CFU/ml by serial dilution method; assay type: functional; conditions: PCM 543, 18 h
Bacillus subtilis = assay: Antibacterial activity against Bacillus subtilis ATCC 6633 incubated in MHB II under aerobic condition for 18 hrs using initial inoculum of 5 x 10^5 CFU/ml by serial dilution method; assay type: functional; conditions: ATCC 6633, 18 h
Escherichia coli = assay: Antibacterial activity against Escherichia coli ATCC 25922 incubated in MHB II under aerobic condition for 18 hrs using initial inoculum of 5 x 10^5 CFU/ml by serial dilution method; assay type: functional; conditions: ATCC 25922, 18 h
Klebsiella pneumoniae = assay: Antibacterial activity against Klebsiella pneumoniae ATCC 700603 incubated in MHB II under aerobic condition for 18 hrs using initial inoculum of 5 x 10^5 CFU/ml by serial dilution method; assay type: functional; conditions: ATCC 700603, 18 h
Staphylococcus aureus = assay: Antibacterial activity against Staphylococcus aureus ATCC 25923 incubated in MHB II under aerobic condition for 18 hrs using initial inoculum of 5 x 10^5 CFU/ml by serial dilution method; assay type: functional; conditions: ATCC 25923, 18 h
Enterococcus faecalis = assay: Antibacterial activity against Enterococcus faecalis ATCC 29212 incubated in MHB II under aerobic condition for 18 hrs using initial inoculum of 5 x 10^5 CFU/ml by serial dilution method; assay type: functional; conditions: ATCC 29212, 18 h
Candida albicans = assay: Antifungal activity against Candida albicans ATCC 10231 incubated in sabouraud liquid medium under aerobic condition for 48 hrs using initial inoculum of 10^3 CFU/ml by serial dilution method; assay type: functional; conditions: ATCC 10231, 48 h
[1] = test system: Staphylococcus epidermidis; assay: Antibacterial activity against Staphylococcus epidermidis PCM 2118 incubated in MHB II under aerobic condition for 18 hrs using initial inoculum of 5 x 10^5 CFU/ml by serial dilution method; assay type: functional; conditions: PCM 2118, 18 h
[2] = Haemolytic activity in human erythrocytes assessed as haemolytic index by measuring hemoglobin release at 0.5 to 128 mg/L incubated for 1 hr by microplate spectrophotometry relative to control; assay type: ADME, cell-based, Erythrocyte; conditions: human erythrocytes, read-out: HI
Yarrowia lipolytica = assay: Antifungal activity against Candida lipolytica PCM 2680 incubated in sabouraud liquid medium under aerobic condition for 48 hrs using initial inoculum of 10^3 CFU/ml by serial dilution method; assay type: functional; conditions: PCM 2680, 48 h
[3] = Haemolytic activity in human erythrocytes assessed as haemolytic index by measuring hemoglobin release at 128 mg/L incubated for 1 hr by microplate spectrophotometry; assay type: ADME, cell-based, Erythrocyte; conditions: read-out: HI
[4] = Haemolytic activity in human erythrocytes assessed as haemolytic index by measuring hemoglobin release at 64 mg/L incubated for 1 hr by microplate spectrophotometry; assay type: ADME, cell-based, Erythrocyte; conditions: read-out: HI

Row | MIC (Pseudomonas aeruginosa) | MIC (Proteus mirabilis) | MIC (Bacillus subtilis) | MIC (Escherichia coli) | MIC (Klebsiella pneumoniae) | MIC (Staphylococcus aureus) | MIC (Enterococcus faecalis) | MIC (Candida albicans) | MIC [1] | MIC (Yarrowia lipolytica) | SMILES | hemolysis at 1 h [2] | hemolysis at 1 h, 128 mg/L [3] | hemolysis at 1 h, 64 mg/L [4]
1 | > 128 µg/mL | > 128 µg/mL | > 128 µg/mL | > 128 µg/mL | > 128 µg/mL | > 128 µg/mL | > 128 µg/mL | > 128 µg/mL | > 128 µg/mL |  | CC(=O)N[C@H]1[C@H](O[C@H]2CC[C@@]3(C)C(=CC[C@H]4[C@@H]5C[C@@H]6O[C@]7(CC[C@@H](C)CO7)[C@@H](C)[C@@H]6[C@@]5(C)CC[C@@H]43)C2)O[C@H](CO)[C@@H](O)[C@@H]1O |  |  | 
2 | > 128 µg/mL | > 128 µg/mL | > 128 µg/mL | > 128 µg/mL | > 128 µg/mL | > 128 µg/mL | > 128 µg/mL | > 128 µg/mL | > 128 µg/mL | > 128 µg/mL | C[C@@H]1CC[C@@]2(OC1)O[C@H]1C[C@H]3[C@@H]4CC=C5C[C@@H](O[C@@H]6O[C@H](CO)[C@@H](O)[C@H](O)[C@H]6NC(=O)CO)CC[C@]5(C)[C@H]4CC[C@]3(C)[C@H]1[C@@H]2C | < 10% |  | 
3 | > 128 µg/mL | > 128 µg/mL | 8 µg/mL (≈ 12.1 µM) | > 128 µg/mL | > 128 µg/mL | 8 µg/mL (≈ 12.1 µM) | 16 µg/mL (≈ 24.1 µM) | 4 µg/mL (≈ 6.03 µM) | 4 µg/mL (≈ 6.03 µM) | 4 µg/mL (≈ 6.03 µM) | C[C@@H]1CC[C@@]2(OC1)O[C@H]1C[C@H]3[C@@H]4CC=C5C[C@@H](O[C@@H]6O[C@H](CO)[C@@H](O)[C@H](O)[C@H]6NC(=O)[C@@H](N)CO)CC[C@]5(C)[C@H]4CC[C@]3(C)[C@H]1[C@@H]2C |  | 46% | 
4 | > 128 µg/mL | > 128 µg/mL | 4 µg/mL (≈ 6.18 µM) | > 128 µg/mL | > 128 µg/mL | 4 µg/mL (≈ 6.18 µM) | 4 µg/mL (≈ 6.18 µM) | 4 µg/mL (≈ 6.18 µM) | 4 µg/mL (≈ 6.18 µM) | 4 µg/mL (≈ 6.18 µM) | CNCC(=O)N[C@H]1[C@H](O[C@H]2CC[C@@]3(C)C(=CC[C@H]4[C@@H]5C[C@@H]6O[C@]7(CC[C@@H](C)CO7)[C@@H](C)[C@@H]6[C@@]5(C)CC[C@@H]43)C2)O[C@H](CO)[C@@H](O)[C@@H]1O | < 10% |  | 
5 | > 128 µg/mL | > 128 µg/mL | > 128 µg/mL | > 128 µg/mL | > 128 µg/mL | > 128 µg/mL | 4 µg/mL (≈ 5.66 µM) |  | 4 µg/mL (≈ 5.66 µM) |  | CSCC[C@H](N)C(=O)N[C@H]1[C@H](O[C@H]2CC[C@@]3(C)C(=CC[C@H]4[C@@H]5C[C@@H]6O[C@]7(CC[C@@H](C)CO7)[C@@H](C)[C@@H]6[C@@]5(C)CC[C@@H]43)C2)O[C@H](CO)[C@@H](O)[C@@H]1O | < 4% |  | 
6 | > 128 µg/mL | > 128 µg/mL | > 128 µg/mL | > 128 µg/mL | > 128 µg/mL | > 128 µg/mL | > 128 µg/mL | > 128 µg/mL | > 128 µg/mL | > 128 µg/mL | CC(=O)NCC(=O)N[C@H]1[C@H](O[C@H]2CC[C@@]3(C)C(=CC[C@H]4[C@@H]5C[C@@H]6O[C@]7(CC[C@@H](C)CO7)[C@@H](C)[C@@H]6[C@@]5(C)CC[C@@H]43)C2)O[C@H](CO)[C@@H](O)[C@@H]1O | < 10% |  | 
7 | > 128 µg/mL | > 128 µg/mL | > 128 µg/mL | > 128 µg/mL | > 128 µg/mL | > 128 µg/mL | > 128 µg/mL | > 128 µg/mL | > 128 µg/mL |  | C[C@@H]1CC[C@@]2(OC1)O[C@H]1C[C@H]3[C@@H]4CC=C5C[C@@H](O[C@@H]6O[C@H](CO)[C@@H](O)[C@H](O)[C@H]6NC(=O)C(F)(F)F)CC[C@]5(C)[C@H]4CC[C@]3(C)[C@H]1[C@@H]2C |  |  | 
8 | > 128 µg/mL | > 128 µg/mL | 8 µg/mL (≈ 12.4 µM) | > 128 µg/mL | > 128 µg/mL | 4 µg/mL (≈ 6.18 µM) | 4 µg/mL (≈ 6.18 µM) | 4 µg/mL (≈ 6.18 µM) | 4 µg/mL (≈ 6.18 µM) | 2 µg/mL (≈ 3.09 µM) | C[C@@H]1CC[C@@]2(OC1)O[C@H]1C[C@H]3[C@@H]4CC=C5C[C@@H](O[C@@H]6O[C@H](CO)[C@@H](O)[C@H](O)[C@H]6NC(=O)[C@H](C)N)CC[C@]5(C)[C@H]4CC[C@]3(C)[C@H]1[C@@H]2C | < 10% |  | 
9 | > 128 µg/mL | > 128 µg/mL | 2 µg/mL (≈ 3.09 µM) | > 128 µg/mL | > 128 µg/mL | 2 µg/mL (≈ 3.09 µM) | 2 µg/mL (≈ 3.09 µM) | 4 µg/mL (≈ 6.18 µM) | 2 µg/mL (≈ 3.09 µM) | 8 µg/mL (≈ 12.4 µM) | C[C@@H]1CC[C@@]2(OC1)O[C@H]1C[C@H]3[C@@H]4CC=C5C[C@@H](O[C@@H]6O[C@H](CO)[C@@H](O)[C@H](O)[C@H]6NC(=O)[C@@H](C)N)CC[C@]5(C)[C@H]4CC[C@]3(C)[C@H]1[C@@H]2C | < 10% |  | 
10 | > 128 µg/mL | > 128 µg/mL | 32 µg/mL (≈ 45.5 µM) | > 128 µg/mL | > 128 µg/mL | 16 µg/mL (≈ 22.7 µM) | 16 µg/mL (≈ 22.7 µM) | 4 µg/mL (≈ 5.68 µM) | 16 µg/mL (≈ 22.7 µM) | 4 µg/mL (≈ 5.68 µM) | C[C@@H]1CC[C@@]2(OC1)O[C@H]1C[C@H]3[C@@H]4CC=C5C[C@@H](O[C@@H]6O[C@H](CO)[C@@H](O)[C@H](O)[C@H]6NC(=O)[C@@H](N)CCCCN)CC[C@]5(C)[C@H]4CC[C@]3(C)[C@H]1[C@@H]2C |  | 92% | 
11 | > 128 µg/mL | > 128 µg/mL | > 128 µg/mL | > 128 µg/mL | > 128 µg/mL | > 128 µg/mL | > 128 µg/mL | 16 µg/mL (≈ 24.1 µM) | > 128 µg/mL | 2 µg/mL (≈ 3.01 µM) | C[C@@H]1CC[C@@]2(OC1)O[C@H]1C[C@H]3[C@@H]4CC=C5C[C@@H](O[C@@H]6O[C@H](CO)[C@@H](O)[C@H](O)[C@H]6NC(=O)[C@@H](O)CO)CC[C@]5(C)[C@H]4CC[C@]3(C)[C@H]1[C@@H]2C |  | 56% | 27%
12 | > 128 µg/mL | > 128 µg/mL | 32 µg/mL (≈ 47.3 µM) | > 128 µg/mL | > 128 µg/mL | 16 µg/mL (≈ 23.6 µM) | 16 µg/mL (≈ 23.6 µM) | 4 µg/mL (≈ 5.91 µM) | 16 µg/mL (≈ 23.6 µM) | 4 µg/mL (≈ 5.91 µM) | C[C@@H]1CC[C@@]2(OC1)O[C@H]1C[C@H]3[C@@H]4CC=C5C[C@@H](O[C@@H]6O[C@H](CO)[C@@H](O)[C@H](O)[C@H]6NC(=O)[C@@H](N)[C@@H](C)O)CC[C@]5(C)[C@H]4CC[C@]3(C)[C@H]1[C@@H]2C |  | 56% | 
13 | > 128 µg/mL | > 128 µg/mL | > 128 µg/mL | > 128 µg/mL | > 128 µg/mL | > 128 µg/mL | > 128 µg/mL | > 128 µg/mL | > 128 µg/mL | > 128 µg/mL | C[C@@H]1CC[C@@]2(OC1)O[C@H]1C[C@H]3[C@@H]4CC=C5C[C@@H](O[C@@H]6O[C@H](CO)[C@@H](O)[C@H](O)[C@H]6NC(=O)[C@H](C)O)CC[C@]5(C)[C@H]4CC[C@]3(C)[C@H]1[C@@H]2C | < 10% |  | 
